# Data as given in US7524964B2, “Tetrahydrothiopyrano pyrazole cannabinoid modulators” (Janssen Pharmaceutica NV, priority 2005, dated 2009).
# Where two headings read alike, the source gives them in different places.
# How the values were obtained:
# human CB-2 receptor = molecular target: T1, human CB-2 receptor (Homo sapiens, UniProt P34972); test: Binding assay, cannabinoid CB2 receptor ([3H]-CP-55,940 displacement); settings: read-out: CB2 binding percent inhibition; for inhibition at 1 µM: test concentration 1 μM (superscript b)
# T1 construct: expressed in transfected cells; host or cells: SK-N-MC cells, pcDNA3 CB-2 (human), semi-purified membranes
# Summary of the method: (§1)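 Displacement of 0.2 nM [3H]-CP-55,940 (non-specific: 10 uM WIN 55,212) was run on semi-purified membranes of transfected SK-N-MC cells carrying human CB-1 or CB-2, 90 min, 30° C, pH 7.5. Scintillation counting; IC50 by linear regression, else % inhibition at 0.2, 1 or 10 μM.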
# human CB1 receptor = human CB1 receptor (Homo sapiens, UniProt P21554); test: Binding assay, cannabinoid CB1 receptor ([3H]-CP-55,940 displacement); parameters: expressed in transfected cells; host or cells: SK-N-MC cells, pcDNA3 CB-1 (human), semi-purified membranes; settings: for inhibition at 0.2 µM: test concentration 0.2 μM (superscript a); for inhibition at 1 µM: test concentration 1 μM (superscript b)
# Summary of the method: as §1
# [1] = test concentration 0.2 μM (superscript a)
# [2] = read-out: CB1 binding percent inhibition
# T1 sequence (P34972 whole entry): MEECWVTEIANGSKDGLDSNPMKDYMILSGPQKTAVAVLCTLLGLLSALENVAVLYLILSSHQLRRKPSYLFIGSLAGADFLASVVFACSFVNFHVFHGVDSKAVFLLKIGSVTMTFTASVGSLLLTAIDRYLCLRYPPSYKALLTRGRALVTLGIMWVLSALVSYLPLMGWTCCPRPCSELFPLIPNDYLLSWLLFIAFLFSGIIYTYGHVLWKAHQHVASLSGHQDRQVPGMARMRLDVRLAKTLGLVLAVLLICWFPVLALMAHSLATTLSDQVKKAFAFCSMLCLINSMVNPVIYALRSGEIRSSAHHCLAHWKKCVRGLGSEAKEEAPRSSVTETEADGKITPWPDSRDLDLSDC
# human CB1 receptor, sequence (P21554 whole entry): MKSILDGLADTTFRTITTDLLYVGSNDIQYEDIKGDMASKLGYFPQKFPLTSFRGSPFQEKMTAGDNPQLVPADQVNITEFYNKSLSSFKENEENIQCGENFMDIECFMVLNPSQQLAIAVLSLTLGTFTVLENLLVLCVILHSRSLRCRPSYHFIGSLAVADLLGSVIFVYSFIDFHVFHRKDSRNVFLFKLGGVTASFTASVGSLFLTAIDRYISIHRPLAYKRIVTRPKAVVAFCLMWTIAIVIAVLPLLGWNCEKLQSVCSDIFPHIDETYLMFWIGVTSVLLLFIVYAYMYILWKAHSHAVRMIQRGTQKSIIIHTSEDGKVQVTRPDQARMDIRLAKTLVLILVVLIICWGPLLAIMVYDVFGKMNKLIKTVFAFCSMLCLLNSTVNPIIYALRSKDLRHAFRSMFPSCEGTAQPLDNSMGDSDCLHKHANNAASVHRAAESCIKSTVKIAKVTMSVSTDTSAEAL
Structure (SMILES),inhibition at 0.2 µM (human CB-2 receptor; [1]) [%],inhibition at 0.2 µM (human CB1 receptor; [2]) [%],IC50 (human CB1 receptor) [nM],further results
"O=C(NN1CC2CCCC2C1)c1nn(-c2ccc(F)cc2F)c2c1CS(=O)(=O)C/C2=C\c1ccc(F)cc1 (stereo not shown) [Cpd 105, (7Z)-1-(2,4-difluoro-phenyl)-7-(4-fluoro-benzylidene)-5,5-dioxo-4,5,6,7-tetrahydro-1H-5λ^6-thiopyrano[4,3-c]pyrazole-3-carboxylic acid (hexahydro-cyclopenta[c]pyrrol-2-yl)-amide]",11,50,–,–
"C[C@@H](NC(=O)c1nn(-c2ccc(Cl)cc2Cl)c2c1CS(=O)(=O)CC2)c1ccccc1 [Cpd 128, 1-(2,4-dichloro-phenyl)-5,5-dioxo-4,5,6,7-tetrahydro-1H-5λ^6-thiopyrano[4,3-c]pyrazole-3-carboxylic acid [(1R)-1-phenyl-ethyl]-amide]",10,5,–,–
"O=C(NN1CCCCC1)c1nn(-c2ccc(Cl)cc2Cl)c2c1CS(=O)(=O)C/C2=C\c1ccc(Cl)o1 [Cpd 119, (7Z)-7-(5-chloro-furan-2-ylmethylene)-1-(2,4-dichloro-phenyl)-5,5-dioxo-4,5,6,7-tetrahydro-1H-5λ^6-thiopyrano[4,3-c]pyrazole-3-carboxylic acid piperidin-1-ylamide]",17,–,81,–
"O=C(NN1CCCCCC1)c1nn(-c2ccc(Cl)cc2Cl)c2c1CSC/C2=C\c1ccc(F)cc1 [Cpd 112, (7Z)-1-(2,4-dichloro-phenyl)-7-(4-fluoro-benzylidene)-1,4,6,7-tetrahydro-thiopyrano[4,3-c]pyrazole-3-carboxylic acid azepan-1-ylamide]",8,–,10,–
"O=C(c1nn(-c2ccc(Cl)cc2)c2c1CS(=O)(=O)C/C2=C\c1ccc(F)cc1)N1CCCCC1 [Cpd 98, (7Z)-[1-(4-chloro-phenyl)-7-(4-fluoro-benzylidene)-5,5-dioxo-4,5,6,7-tetrahydro-1H-5λ^6-thiopyrano[4,3-c]pyrazol-3-yl]-piperidin-1-yl-methanone]",14,51,–,–
"C[C@@H](NC(=O)c1nn(-c2ccc(Cl)cc2Cl)c2c1CSC/C2=C\c1ccc(F)cc1)c1ccccc1 [Cpd 63, (7Z)-1-(2,4-dichloro-phenyl)-7-(4-fluoro-benzylidene)-1,4,6,7-tetrahydro-thiopyrano[4,3-c]pyrazole-3-carboxylic acid [(1R)-1-phenyl-ethyl]-amide]",6,–,9,–
"C[C@H](NC(=O)c1c2c(nn1-c1ccc(Cl)cc1Cl)/C(=C/c1ccc(F)cc1)CSC2)c1ccccc1 [Cpd 91, (7Z)-2-(2,4-dichloro-phenyl)-7-(4-fluoro-benzylidene)-2,4,6,7-tetrahydro-thiopyrano[4,3-c]pyrazole-3-carboxylic acid [(1S)-1-phenyl-ethyl]-amide]",14,38,–,–
"COC[C@@H]1CCCN1NC(=O)c1nn(-c2ccc(Cl)cc2Cl)c2c1CSC/C2=C\c1ccc(F)cc1 [Cpd 123, (7Z)-1-(2,4-dichloro-phenyl)-7-(4-fluoro-benzylidene)-1,4,6,7-tetrahydro-thiopyrano[4,3-c]pyrazole-3-carboxylic acid [(2S)-2-(methoxymethyl)-pyrrolidin-1-yl]-amide]",12,61,–,–
"O=C(NN1CCCCC1)c1nn(-c2ccc(Cl)cc2Cl)c2c1CSC/C2=C\c1ccc(Br)cc1 [Cpd 130, (7Z)-(4-Bromo-benzylidene)-1-(2,4-dichloro-phenyl)-1,4,6,7-tetrahydro-thiopyrano[4,3-c]pyrazole-3-carboxylic acid piperidin-1-ylamide]",34,–,21,–
"O=C(N[C@H]1c2ccccc2C[C@H]1O)c1nn(-c2ccc(Cl)cc2Cl)c2c1CS(=O)(=O)C/C2=C\c1ccc(F)cc1 [Cpd 70, (7Z)-1-(2,4-dichloro-phenyl)-7-(4-fluoro-benzylidene)-5,5-dioxo-4,5,6,7-tetrahydro-1H-5λ^6-thiopyrano[4,3-c]pyrazole-3-carboxylic acid [(1S,2R)-2-hydroxy-indan-1-yl]-amide]",19,–,12,–
"C[C@@H](NC(=O)c1c2c(nn1-c1ccc(Cl)cc1Cl)/C(=C/c1ccc(F)cc1)CSC2)C1CCCCC1 [Cpd 89, (7Z)-2-(2,4-dichloro-phenyl)-7-(4-fluoro-benzylidene)-2,4,6,7-tetrahydro-thiopyrano[4,3-c]pyrazole-3-carboxylic acid [(1R)-1-cyclohexyl-ethyl]-amide]",10,–,74,–
"O=C(NN1CCN(CCO)CC1)c1nn(-c2ccc(Cl)cc2Cl)c2c1CSC/C2=C\c1ccc(F)cc1 [Cpd 114, (7Z)-1-(2,4-dichloro-phenyl)-7-(4-fluoro-benzylidene)-1,4,6,7-tetrahydro-thiopyrano[4,3-c]pyrazole-3-carboxylic acid [4-(2-hydroxy-ethyl)-piperazin-1-yl]-amide]",5,6,–,–
C[C@H](NS(=O)(=O)/C=C/c1c2c(nn1Cc1ccccc1)CCSC2)C1CCCCC1 [Cpd 8],–,–,–,inhibition at 1 µM (human CB-2 receptor): 5%; inhibition at 1 µM (human CB1 receptor; [2]): 8%
"O=S(=O)(/C=C/c1nn(-c2ccc(F)cc2F)c2c1CSCC2Cc1cccc(F)c1)NN1CCCCC1 (stereo not shown) [Cpd 40, (E)-2-[1-(2,4-difluoro-phenyl)-7-(3-fluoro-benzyl)-1,4,6,7-tetrahydro-thiopyrano[4,3-c]pyrazol-3-yl]-ethenesulfonic acid piperidin-1-ylamide]",10,12,–,–
"C[C@@H](NS(=O)(=O)/C=C/c1c2c(nn1Cc1ccccc1)CCS(=O)(=O)C2)C1CCCCC1 [Cpd 16, (E)-2-(2-benzyl-5,5-dioxo-4,5,6,7-tetrahydro-2H-5λ^6-thiopyrano[4,3-c]pyrazol-3-yl)-ethenesulfonic acid [(1R)-1-cyclohexyl-ethyl]-amide]",–,–,–,inhibition at 1 µM (human CB-2 receptor): 0%; inhibition at 1 µM (human CB1 receptor; [2]): 0%
"O=C(N[C@@H]1CCCC[C@H]1O)c1nn(-c2ccc(Cl)cc2Cl)c2c1CSC/C2=C\c1ccc(F)cc1 [Cpd 61, (7Z)-1-(2,4-dichloro-phenyl)-7-(4-fluoro-benzylidene)-1,4,6,7-tetrahydro-thiopyrano[4,3-c]pyrazole-3-carboxylic acid [(1R,2R)-2-hydroxy-cyclohexyl]-amide]",31,60,–,–
"O=C(NN1CCCCCC1)c1nn(-c2ccc(Cl)cc2Cl)c2c1CS(=O)(=O)C/C2=C\c1ccc(Cl)o1 [Cpd 120, (7Z)-7-(5-chloro-furan-2-ylmethylene)-1-(2,4-dichloro-phenyl)-5,5-dioxo-4,5,6,7-tetrahydro-1H-5λ^6-thiopyrano[4,3-c]pyrazole-3-carboxylic acid azepan-1-ylamide]",12,–,33,–
"C[C@H](NC(=O)/C=C/c1nn(Cc2ccccc2)c2c1C[S+]([O-])CC2)c1ccccc1 (stereo partly drawn) [Cpd 34, (2E)-3-(1-benzyl-5-oxo-4,5,6,7-tetrahydro-1H-5λ^4-thiopyrano[4,3-c]pyrazol-3-yl)-N-[(1S)-1-phenyl-ethyl]-acrylamide]",–,–,–,"inhibition at 10 µM (human CB-2 receptor; test concentration 10 μM (superscript c)): 21%; inhibition at 10 µM (human CB1 receptor; test concentration 10 μM (superscript c), read-out: CB1 binding percent inhibition): 11%"
"O=C(NN1CC2CCCC2C1)c1nn(-c2ccc(Cl)cc2Cl)c2c1CS(=O)(=O)C/C2=C\c1ccc(Cl)o1 (stereo not shown) [Cpd 121, (7Z)-7-(5-chloro-furan-2-ylmethylene)-1-(2,4-dichloro-phenyl)-5,5-dioxo-4,5,6,7-tetrahydro-1H-5λ^6-thiopyrano[4,3-c]pyrazole-3-carboxylic acid (hexahydro-cyclopenta[c]pyrrol-2-yl)-amide]",15,–,48,–
"O=C(c1nn(-c2ccc(Cl)cc2Cl)c2c1CS(=O)(=O)C/C2=C\c1ccc(F)cc1)N1CCCCC1 [Cpd 101, (7Z)-[1-(2,4-dichloro-phenyl)-7-(4-fluoro-benzylidene)-5,5-dioxo-4,5,6,7-tetrahydro-1H-5λ^6-thiopyrano[4,3-c]pyrazol-3-yl]-piperidin-1-yl-methanone]",24,61,–,–
"CC(C)(C)OC(=O)N1CCN(NC(=O)c2nn(-c3ccc(Cl)cc3Cl)c3c2CSC/C3=C\c2ccc(F)cc2)CC1 [Cpd 64, 4-{[(7Z)-1-(2,4-dichloro-phenyl)-7-(4-fluoro-benzylidene)-1,4,6,7-tetrahydro-thiopyrano[4,3-c]pyrazole-3-carbonyl]-amino}-piperazine-1-carboxylic acid tert-butyl ester]",–,–,24,inhibition at 0.2 µM (human CB-2 receptor): 0%
"O=C(N[C@@H]1c2ccccc2C[C@@H]1O)c1nn(-c2ccc(Cl)cc2Cl)c2c1CS(=O)(=O)C/C2=C\c1ccc(F)cc1 [Cpd 69, (7Z)-1-(2,4-dichloro-phenyl)-7-(4-fluoro-benzylidene)-5,5-dioxo-4,5,6,7-tetrahydro-1H-5λ^6-thiopyrano[4,3-c]pyrazole-3-carboxylic acid [(1R,2S)-2-hydroxy-indan-1-yl]-amide]",10,–,23,–
"COC[C@H]1CCCN1NC(=O)c1nn(-c2ccc(Cl)cc2Cl)c2c1CS(=O)(=O)C/C2=C\c1ccc(F)cc1 [Cpd 126, (7Z)-1-(2,4-dichloro-phenyl)-7-(4-fluoro-benzylidene)-5,5-dioxo-4,5,6,7-tetrahydro-1H-5λ^6-thiopyrano[4,3-c]pyrazole-3-carboxylic acid [(2R)-2-(methoxymethyl)-pyrrolidin-1-yl]-amide]",0,55,–,–
